# Measurements taken from patent US8877720B2, “Epirubicin derivatives” (Tianjin Hemay Bio-Tech Co., Ltd., priority 2009, dated 2014).
# Read-outs that look alike come from different tables or passages of the source.
# Key:
# [1] = system: HL-60 cells; assay: Cytotoxicity assay (MTS/MTT), HL-60 cells; format: cell-based, human; conditions: for Inhibition Ratio (%): HL-60 cells, concentration of 1 μM
# Description: (§1) Cytotoxicity Assay (MTS Assay)
# HL-60: human leukemia cell strains
# (§2) Cells were inoculated in RPMI 1640 cell culture solution with 10% fetal bovine serum (supplemented with 100 ku/L of penicillin, streptomycin, respectively). The petri dishes were left in a cell incubator containing 5% CO2 under the temperature of 37° C. The medium was changed every 2-3 days, and was digested with 0.25% trypsin solution. The cells were subcultured and collected.
# (§3) The cells in the exponential phase were formulated into cell suspensions with desired concentrations using RPMI 1640 cell culture solutions containing 10% fetal bovine serum. The suspensions were added into 96-well cell culture plates according to 3,000-5,000 cells per well (100 μl). After being cultured for 24 hr, 100 μl of assay compounds having different concentrations were added into each well. Four parallel tests were conducted for each well. The supernatants were discarded after being cultured for 72-120 hr. 100 μl of 0.5 mg/ml MTT fresh serum-free culture solutions were added into each well. The resultant supernatants were discarded after being cultured for 4 hr at 37° C. Formazan was dissolved with 200 μl DMSO. The resulting mixture was gently shaken for 15 min. Optical absorption values (OD-values) at 570 nm of detection wavelength and 450 nm of reference wavelength were measured with ELISA reader.
# (§4) The data were represented by x±s. Inhibition Ratio=(OD values in control groups−OD values in administration groups)/OD values in control groups×100%. Anti-cancer effects were represented by maximum inhibition ratio Imax and inhibitory concentration 50 (IC50). Drawings were obtained with software MicroCal Origin. Inhibition curves of assay compounds for inhibiting the growth of tumor cells were fitted by the four-parameter program Logistic in the software so as to give the inhibitory concentration 50 (IC50:μg/ml) for inhibiting the proliferation of tumor cells.
# The exposure concentrations of the assay compounds were 0.001 μg/ml, 0.003 μg/ml, 0.009 μg/ml, 0.027 μg/ml, 0.082 μg/ml, 0.247 μg/ml, 0.741 μg/ml, 2.222 μg/ml, 6.667 μg/ml and 20 μg/ml. The exposure concentrations of adriamycin (as positive drugs) were 1.25 μg/ml, 5 μg/ml and 20 μg/ml. In 96-well plates, 3,000-5,000 cells were inoculated in each well. Four parallel assays were conducted for each concentration.
# [2] = system: THP-1; assay: Cytotoxicity assay (MTS/MTT), THP-1 cells; format: cell-based, human; conditions: read-out: Inhibitory Concentration 50 for Cell Growth (IC50)
# Description: THP-1: human leukemia cell strains
# [3] = system: Kunming mice; assay: Maximum tolerated dose (MTD) in vivo of mice
# Description: Assays on Maximum Tolerated Dose (MTD) In Vivo of Mice
# (1) Assay animals: 9 Kunming Mice, of which five were male and four were female, with a weight of 20-22 g (purchased from Lab Animals Center of Chinese Academy of Medical Sciences, License No. scxk (jin) 2005-0001)
# (2) Assay medicine: compound in Example 1
# Kunming mice were 9, of which 5 were male and 4 were female. Each mouse was administered the compound in Example 1 (20 mg/kg, iv) with a dose volume of 20 ml/kg.
# The process for preparing a solution of the compound in Example 1: 4.53 mg of the compound in Example 1 was weighed and dissolved by adding 40 μL of DMSO (dimethylsulfoxide). 340 μL of RH40 (polyoxyethylene castor oil) were added. After mixing homogeneously, 4.156 mL of physiological saline was added to the mixture. After mixing homogeneously, the mixture was filtered with 0.45 μm filter membrane to give a 1 mg/ml solution of the compound in Example 1.
# Observation time: 14 days
# Observation indicators: weight, appearance, breath, action, reflection, defecation
# [4] = system: DU-145; assay: Cytotoxicity assay (MTS/MTT), DU-145 cells; format: cell-based, human; conditions: read-out: Inhibitory Concentration 50 for Cell Growth (IC50)
# Description: as §1
# DU-145: human prostate cancer cell strains
# as §2, §3
# (§5) The data were represented by x±s. […]
# [5] = system: A431 Cells; assay: Cytotoxicity assay (MTS/MTT), A431 cells; format: cell-based, human
# Description: A431: epidermoid cell strains
# [6] = system: Hep G2; assay: Cytotoxicity assay (MTS/MTT), Hep G2 cells; format: cell-based, human; conditions: read-out: Inhibitory Concentration 50 for Cell Growth (IC50)
# Description: as §1
# HePG-2: human liver cancer cell strains
# as §2, §3, §5
# [7] = system: K562; assay: Cytotoxicity assay (MTS/MTT), K562 cells; format: cell-based, human
# Description: as §1
# K562: human leukemia cell strain
# as §2, §3, §5
# [8] = system: PC-3 Cells; assay: Cytotoxicity assay (MTS/MTT), PC-3 cells; format: cell-based, human; conditions: for IC50: PC-3 Cells, read-out: Inhibitory Concentration 50 for Cell Growth (IC50)
# Description: as §1
# PC-3: human prostate cancer cell strains
# as §2, §3
# as §4, with “cells. […]” for “cells.”
# [9] = system: 786-O; assay: Cytotoxicity assay (MTS/MTT), 786-O cells; format: cell-based, human
# Description: as §1
# 786-O: human kidney cancer cell strains
# as §2, §3, §5
# [10] = system: U937 Cells; assay: Cytotoxicity assay (MTS/MTT), U937 cells; format: cell-based, human; conditions: for IC50: U937 Cells, read-out: Inhibitory Concentration 50 for Cell Growth (IC50)
# Description: as §1
# U937: human lymphoma cell strains
# as §2, §3, §4
# The exposure concentrations of the assay compounds were 0.001 μg/ml, 0.003 μg/ml, 0.009 μg/ml, 0.027 μg/ml, 0.082 μg/ml, 0.247 μg/ml, 0.741 μg/ml, 2.222 μg/ml, 6.667 μg/ml and 20 μg/ml. […]
# [11] = system: A549; assay: Cytotoxicity assay (MTS/MTT), A549 cells; format: cell-based, human
# Description: as §1
# A549: human lung cancer cell strains
# as §2, §3, §5
# [12] = system: NCI H460; assay: Cytotoxicity assay (MTS/MTT), NCI-H460 cells; format: cell-based, human; conditions: read-out: Inhibitory Concentration 50 for Cell Growth (IC50)
# Description: NCI-H460: human lung cancer cell strains
# [13] = system: NCI H446; assay: Cytotoxicity assay (MTS/MTT), NCI-H446 cells; format: cell-based, human; conditions: read-out: Inhibitory Concentration 50 for Cell Growth (IC50)
# Description: as §1
# NCI-H446: human lung cancer cell strains
# as §2, §3, §5
# [14] = 20 mg/kg via tail vein, observed for 14 days
# [15] = single intravenous injection 20 mg/kg, 9 mice, 14 days observation
smiles,measurement,setting,value
"COc1cccc2c1C(=O)c1c(O)c3c(c(O)c1C2=O)C[C@@](O)(C(=O)CO)C[C@@H]3O[C@H]1C[C@H](N2C(=O)c3cccnc3C2=O)[C@@H](O)[C@H](C)O1 [Example 7, 3′-(pyridino-(2,3)succinimidyl)epirubicin]",Inhibition Ratio (%),[1],10%
"COc1cccc2c1C(=O)c1c(O)c3c(c(O)c1C2=O)C[C@@](O)(C(=O)CO)C[C@@H]3O[C@H]1C[C@H](N2C(=O)c3ccccc3C2=O)[C@@H](O)[C@H](C)O1 [Example 8, 3′-(benzo-(2,3)succinimidyl)epirubicin]",Inhibition Ratio (%),[1],71%
"COc1cccc2c1C(=O)c1c(O)c3c(c(O)c1C2=O)C[C@@](O)(C(=O)CO)C[C@@H]3O[C@H]1C[C@H](N2C(=O)C=CC2=O)[C@@H](O)[C@H](C)O1 [Example 6, 3′-maleimidyl epirubicin]",Inhibition Ratio (%),[1],43%
"COc1cccc2c1C(=O)c1c(O)c3c(c(O)c1C2=O)CC(O)(C(=O)CO)CC3OC1CC(N2C(=O)CCC2=O)C(O)C(C)O1 (centres unmarked) [Example 4, 3′-succinimidyl epirubicin]",Inhibition Ratio (%),[1],62%
"COc1cccc2c1C(=O)c1c(O)c3c(c(O)c1C2=O)C[C@@](O)(C(=O)CO)C[C@@H]3O[C@H]1C[C@H](n2cccc2)[C@@H](O)[C@H](C)O1 [Example 1, 3′-pyrrolyl epirubicin]",IC50,[2],9 nM
same,Findings on dissection at the end of the test,"[3]; 20 mg/kg via tail vein, dissected after 14 days",no abnormal phenomena were observed
same,Change on the weights of the mice,[3]; [14],no significant change on the weights
same,Death of mice,[3]; [14],no animal died
same,"Other indicators (appearance, breath, action, reflection, defecation)",[3]; [14],not obviously abnormal
same,Death Number,[3]; [15],0
same,Mortality Rate (%),[3]; [15],0%
same,Average Weight (g) of Mice,"[3]; single intravenous injection 20 mg/kg, Day 1",20.9 g
same,Average Weight (g) of Mice,"[3]; single intravenous injection 20 mg/kg, Day 2",20.2 g
same,Average Weight (g) of Mice,"[3]; single intravenous injection 20 mg/kg, Day 3",20.4 g
same,Average Weight (g) of Mice,"[3]; single intravenous injection 20 mg/kg, Day 5",19.7 g
same,Average Weight (g) of Mice,"[3]; single intravenous injection 20 mg/kg, Day 6",20.2 g
same,Average Weight (g) of Mice,"[3]; single intravenous injection 20 mg/kg, Day 7",19.8 g
same,Average Weight (g) of Mice,"[3]; single intravenous injection 20 mg/kg, Day 8",20.0 g
same,Average Weight (g) of Mice,"[3]; single intravenous injection 20 mg/kg, Day 9",20.1 g
same,Average Weight (g) of Mice,"[3]; single intravenous injection 20 mg/kg, Day 10",20.5 g
same,Average Weight (g) of Mice,"[3]; single intravenous injection 20 mg/kg, Day 11",20.4 g
same,Average Weight (g) of Mice,"[3]; single intravenous injection 20 mg/kg, Day 12",20.4 g
same,Average Weight (g) of Mice,"[3]; single intravenous injection 20 mg/kg, Day 13",20.8 g
same,Average Weight (g) of Mice,"[3]; single intravenous injection 20 mg/kg, Day 14",21.1 g
same,IC50,[4],8.6 nM
same,IC50,[5]; read-out: Inhibitory Concentration 50 for Cell Growth (IC50),6.3 nM
same,IC50,[6],27 nM
same,IC50,"[7]; K562, read-out: Inhibitory Concentration 50 for Cell Growth (IC50)",44 nM
same,Effect on growth of tumor cell strain,[7]; human leukemia K562,strong inhibitory effects
same,IC50,"[1]; HL-60, read-out: Inhibitory Concentration 50 for Cell Growth (IC50)",357 nM
same,Inhibition Ratio (%),[1],80%
same,IC50,[8],10 nM
same,Effect on growth of tumor cell strain,[8]; human prostate cancer PC-3,strong inhibitory effects
same,IC50,"[9]; 786-O, read-out: Inhibitory Concentration 50 for Cell Growth (IC50)",74 nM
same,Effect on growth of tumor cell strain,[9]; kidney cancer 786-0,strong inhibitory effects
same,IC50,[10],12 nM
same,Effect on growth of tumor cell strain,[10]; lymphoma U937,strong inhibitory effects
same,IC50,"[11]; A549, read-out: Inhibitory Concentration 50 for Cell Growth (IC50)",206 nM
same,Effect on growth of tumor cell strain,[11]; lung cancer A549,strong inhibitory effects
same,IC50,[12],14 nM
same,IC50,[13],160 nM
"COc1cccc2c1C(=O)c1c(O)c3c(c(O)c1C2=O)CC(O)(C(=O)CO)CC3OC1CC(N2C(=O)CCCC2=O)C(O)C(C)O1 (centres unmarked) [Example 5, 3′-glutarimido epirubicin]",Inhibition Ratio (%),[1],35%
COc1cccc2c1C(=O)c1c(O)c3c(c(O)c1C2=O)C[C@@](O)(C(=O)CO)C[C@@H]3O[C@H]1C[C@H](N)[C@@H](O)[C@H](C)O1 [Epirubicin],IC50,[2]; Homo sapiens,67 nM
same,IC50,"[5]; Homo sapiens, A-431, read-out: Inhibitory Concentration 50 for Cell Growth (IC50)",18 nM
same,IC50,[8]; Homo sapiens,110 nM
same,IC50,"[10]; Homo sapiens, U-937",10 nM
same,IC50,[12]; Homo sapiens,25 nM
